Assay results from patent publication US11235033B1, “Materials and methods for the treatment of vascular calcification” (THE FLORIDA INTERNATIONAL UNIVERSITY BOARD OF TRUSTEES, priority 2020, dated 2022).
Entries after “also recorded” stand apart in the source; their conditions may differ. Where two headings read alike, the source gives them in different places.

Columns and labels:
caveolin-1 [1] = test: Western blotting of caveolin-1 in SMCs and in EVs under pro-calcific conditions; assay type: cell-based, human; details: AG 1478 2.5 μM; for EV caveolin-1: EVs under pro-calcific conditions, FIG. 8D; for intracellular caveolin-1: SMCs, FIG. 8C
Source text: (§1) EVs from the in vitro samples are isolated using previously established procedures, which includes 1,000×g and 10,000×g centrifugations to remove cells and large contaminants and a 100,000×g ultracentrifugation to obtain EVs suspended in conditioned media.
(§2) To determine changes in caveolin-1 associated with the culture conditions and treatments, western blotting and immunofluorescence are used to assay caveolin-1 phosphorylation on tyrosine 14. This site is associated with changes in EGFR activity and caveolae internalization. Immunofluorescence is then used to assess the localization of caveolin-1 within the SMCs for the different culture conditions at these time points. Western blotting is used to quantify caveolin-1 in EVs relative to SMC lysates.

[2] = test system: primary human coronary artery smooth muscle cells; test: Calcific mineral formation by SMCs cultured in pro-calcific (osteogenic) media in vitro; assay type: cell-based; details: for SMC mineralization in vitro: AG 1478 2.5 μM, FIG. 8A
Protocol: Pro-calcific media, optimized to induce calcification, consists of growth media supplemented with 10 nM dexamethasone, 100 μM L-ascorbic acid, and 10 mM β-glycerolphosphate. All in vitro experiments proceed for 14 days, when release of calcifying EVs from human coronary artery SMCs in pro-calcific media peaks.
[…] Changes in SMC phenotype are assayed in the culture conditions and in response to the small molecule treatments by measuring expression of osteogenic and SMC relevant genes at the time points considered. In vitro mineralization is assessed using alizarin red S staining, extraction, and colorimetric analyses after 21 days in culture.

[3] = test system: tissue non-specific alkaline phosphatase (TNAP); test: TNAP activity in EVs released by SMCs; assay type: cell-based, human; details: AG 1478 2.5 μM, FIG. 8B
Source text: To obtain EVs from the mouse aortae, following collagenase digestion and tissue homogenization using a Dounce homogenizer, cells and large extracellular aggregates are removed by centrifugation steps of 1,000×g and 10,000×g, respectively. EVs are isolated from the remaining supernatant by ultracentrifugation at 100,000×g. Western blotting analyses of commonly enriched EV markers determine the efficacy of the isolation procedures. The presence of caveolin-1 and activity of the pro-calcific enzyme TNAP are also assessed in the extracted EVs.
as §1

CKD mice = test: Aortic calcification in CKD mice fed a high phosphate diet; assay type: in vivo, mouse; details: for calcification in treated CKD mice: CKD diet regimen, AG1478 20 mg/kg or ML290 30 mg/kg oral gavage every 2 days
Protocol: Eight-week old SMMHC-CreER^T2+/Cav1^fl/fl mice receive daily intraperitoneal injections of either peanut oil (vehicle control) or tamoxifen (1 mg/kg) for two weeks. Following the final injection, mice receive an adenine-enriched (0.2%) diet for 6 weeks to induce kidney dysfunction. Elevated phosphate (1.8%) is then added to the diet to induce medial calcification. Using a sensitive near-infrared calcium mineral tracer (OsteoSense 680), significant aortic calcification in mice was observed after 2 weeks of the high phosphate diet (FIG. 1). Vascular calcification continues to increase for up to 6 weeks of the high phosphate diet.
To test the therapeutic efficacy of these small molecules, e.g., ML290 or AG1478, the same CKD diet regimen is used as discussed above. A mouse model designed to test agonists for human RXFP1 is utilized.
Beginning at prescribed time points (FIG. 11), mice are treated with the EGFR inhibitor, AG1478 (20 mg/kg), or ML290 (30 mg/kg) via oral gavage every 2 days. Control mice receive vehicle gavage. The treatments begin either at the initiation of the high phosphate diet (to determine if the treatments prevent mineral formation) or after two weeks of the high phosphate diet (to determine if the treatments can reverse medial calcification).

caveolin-1 [4] = test: Immunofluorescence of caveolin-1 localization in SMCs in pro-calcific media; assay type: cell-based, human; details: 1 μM AG1478, SMCs in pro-calcific media; FIG. 13
Source text: (§3) The vasodilatory effects of RXFP1 agonism occurs through interactions within caveolae on endothelial cells. G-protein-coupled receptors (GPCRs), such as RXFP1, use caveolae scaffolding domains to regulate interactions with other proteins and activate downstream signaling. […] RXFP1 agonism may stabilize existing caveolae, leading to the observed decreased caveolin-1 turnover. RXFP1 agonist-induced stabilization of caveolae may prevent the formation of calcifying EVs.
as §2

dynamin = details: cited from earlier work
[5] = in vivo; cited from earlier work
hypertensive rats = details: chronic treatment; cited from earlier work
THP1 cells = details: cited from earlier work
PPARGC1A = PPARGC1A gene expression in SMCs cultured in pro-calcific media; assay type: cell-based, human; details: FIG. 15
Source text: The modulation of a different GPCR, the serotonin 2B receptor, alters intracellular trafficking to prevent calcification by aortic valve cells. Both 5-HT2B and RXFP1 can modulate vascular tone through interactions with nitric oxide synthase—a known caveolin-1 interactor. RXFP1 may, however, affect caveolin-1 protein stability directly. Peroxisome Proliferator-Activated Receptor γ (PPARγ) activation promotes lysosomal degradation of caveolin-1 in pulmonary artery SMCs. […] Therefore, thus result indicates the potential mechanism for the observed anti-calcific effects of ML290.

RXFP1 [6] = biological target: T1, RXFP1 (Homo sapiens, UniProt Q9HBX9); details: cited from earlier work
T1 sequence (Q9HBX9 1-757): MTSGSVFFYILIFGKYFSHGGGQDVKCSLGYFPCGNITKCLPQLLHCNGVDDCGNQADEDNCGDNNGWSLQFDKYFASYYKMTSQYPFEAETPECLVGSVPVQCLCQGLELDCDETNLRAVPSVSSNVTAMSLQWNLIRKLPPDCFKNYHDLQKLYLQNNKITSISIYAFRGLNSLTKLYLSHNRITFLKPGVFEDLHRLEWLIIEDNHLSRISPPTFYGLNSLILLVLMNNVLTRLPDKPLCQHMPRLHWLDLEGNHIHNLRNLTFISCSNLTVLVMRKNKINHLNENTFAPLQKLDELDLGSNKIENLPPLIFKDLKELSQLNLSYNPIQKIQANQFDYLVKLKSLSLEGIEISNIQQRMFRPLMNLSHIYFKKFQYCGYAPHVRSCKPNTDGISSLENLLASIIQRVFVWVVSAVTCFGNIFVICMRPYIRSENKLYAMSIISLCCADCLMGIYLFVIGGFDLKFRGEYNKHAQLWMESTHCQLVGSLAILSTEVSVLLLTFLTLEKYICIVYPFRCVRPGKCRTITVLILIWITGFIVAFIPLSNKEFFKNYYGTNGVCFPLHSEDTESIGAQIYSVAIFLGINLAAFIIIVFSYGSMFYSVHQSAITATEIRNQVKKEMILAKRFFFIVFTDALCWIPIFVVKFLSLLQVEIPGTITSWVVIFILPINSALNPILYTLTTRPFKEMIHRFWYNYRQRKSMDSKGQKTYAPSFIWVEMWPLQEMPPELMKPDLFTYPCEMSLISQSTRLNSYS

[7] = Pharmacokinetics study of ML290 via oral administration in hRXFP1/hRXFP1 mice; assay type: in vivo; details: mouse, 30 mg/kg oral
caveolin-1 [8] = test: Caveolin-1 gene expression in pro-calcific SMC culture; assay type: cell-based, human; details: SMCs, pro-calcific conditions, 24 h; FIG. 14
Source text: as §3

[9] = Adverse events in 25-week atherosclerotic mouse study; assay type: in vivo; details: mice, oral gavage, preliminary 25-week atherosclerotic study
atherogenic Apoe−/− mice = test: Calcification (OsteoSense fluorescence) in atherogenic Apoe-/- mice; assay type: in vivo, mouse; details: oral gavage 30 mg/kg; for OsteoSense fluorescence (mineral) vs vehicle treated controls: after 25 weeks of atherogenic diet
Source text: A chow control is shown for comparison (first aorta). C) Quantification of mice treated with ML290 at the initiation of the atherogenic diet. […] D) Quantification of OsteoSense signal in mice treated at 15 weeks of atherogenic diet, indicating potential of treatment to reverse existing remodeling. #p<0.0001.
Relaxin Family Peptide Receptor 1 (RXFP1) agonism induces vasodilation through a mechanism that may involve interactions with endothelial nitric oxide synthase within caveolae. The relaxin peptide, activating RXFP1, has therapeutic potential in treating fibrosis and vasculopathies.

rodent receptor = biological target: T2, rodent receptor (Mus musculus, UniProt Q6R6I7); details: cited from earlier work
T2 sequence (Q6R6I7 1-758): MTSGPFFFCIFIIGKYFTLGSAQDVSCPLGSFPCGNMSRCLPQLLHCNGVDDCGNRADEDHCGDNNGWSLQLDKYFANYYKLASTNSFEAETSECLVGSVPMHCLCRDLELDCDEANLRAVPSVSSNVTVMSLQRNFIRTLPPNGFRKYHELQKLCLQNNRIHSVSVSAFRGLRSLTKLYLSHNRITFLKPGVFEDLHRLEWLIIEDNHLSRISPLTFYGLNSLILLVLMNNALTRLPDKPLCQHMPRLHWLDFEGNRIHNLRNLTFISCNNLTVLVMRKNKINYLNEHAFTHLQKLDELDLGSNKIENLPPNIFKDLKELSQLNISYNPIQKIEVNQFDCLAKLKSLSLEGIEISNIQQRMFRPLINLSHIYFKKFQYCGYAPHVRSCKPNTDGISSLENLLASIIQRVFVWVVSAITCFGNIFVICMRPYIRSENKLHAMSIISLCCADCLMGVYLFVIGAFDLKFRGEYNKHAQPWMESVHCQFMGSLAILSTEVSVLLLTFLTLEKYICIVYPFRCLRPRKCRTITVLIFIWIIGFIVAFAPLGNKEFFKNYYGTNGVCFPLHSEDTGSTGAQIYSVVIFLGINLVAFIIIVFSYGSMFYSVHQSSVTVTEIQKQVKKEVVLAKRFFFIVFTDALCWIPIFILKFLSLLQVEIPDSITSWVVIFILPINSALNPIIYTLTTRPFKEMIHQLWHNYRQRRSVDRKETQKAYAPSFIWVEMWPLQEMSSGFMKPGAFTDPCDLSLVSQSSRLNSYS

RXFP1 [10] = biological target: T1, RXFP1; details: cited from earlier work; remark: listed apart in the source

COc1cc2ncnc(Nc3cccc(Cl)c3)c2cc1OC [AG1478]
EV caveolin-1 (caveolin-1 [1]): reduces caveolin-1 released in EVs; also recorded: decreases EV caveolin-1
EV caveolin-1 (caveolin-1 [1]; listed as AG 1478): reduces EV caveolin-1
intracellular caveolin-1 (caveolin-1 [1]): does not change intracellular caveolin-1; also recorded: without affecting intracellular caveolin-1 levels
intracellular caveolin-1 (caveolin-1 [1]; listed as AG 1478): does not affect intracellular caveolin-1
SMC mineralization in vitro [2]: prevents calcific mineral formation
SMC mineralization in vitro ([2]; listed as AG 1478): prevents SMC mineralization
EV TNAP activity [3]: reduces activity
EV TNAP activity ([3]; listed as AG 1478): reduces EV TNAP activity
calcification in treated CKD mice (CKD mice): Diminished calcification
caveolin-1 plasma membrane (peripheral) localization (caveolin-1 [4]): maintained the peripheral localization of caveolin-1; also recorded: preserves caveolin-1 (red) plasma membrane localization
dynamin activity (dynamin): reduces dynamin activity

relaxin
safety and tolerability [5]: safe and well-tolerated
arterial compliance (hypertensive rats): improved arterial compliance

CC(C)Oc1ccccc1C(=O)Nc1ccccc1C(=O)Nc1cccc(S(=O)(=O)C(F)(F)F)c1 [ML290]
VEGF gene expression (THP1 cells): increase
cAMP levels (THP1 cells): increase
mineral formation by vascular smooth muscle cells in vitro ([2]; ML290 5 μM, FIG. 9A): significantly reduces mineral formation
anti-calcification effect on human SMCs in vitro ([2]; primary human coronary artery smooth muscle cells cultured in osteogenic stimuli): mitigates calcification; also recorded: profound anti-calcification effects
PPARGC1A gene expression (PPARGC1A): increases PPARGC1A; also recorded: increased expression of PPARGC1A
selectivity towards RXFP1 over RXFP2 receptors (RXFP1 [6]): > 100 fold
half-life ([7]; aorta, read-out: t½ in aorta (converted)): 8 h
half-life ([7]; serum, read-out: t½ in serum (converted)): 11 h
caveolin-1 gene expression (caveolin-1 [8]): decreases caveolin-1 gene expression; also recorded: reduces caveolin-1 expression
adverse events [9]: No adverse events
calcification in treated CKD mice (CKD mice): Diminished calcification
aortic calcification (CKD mice; CKD mice, 30 mg/kg oral gavage from initiation of high phosphate diet, 2 weeks, FIG. 12, 30 mg/kg): significant prevented aortic calcification; also recorded: significantly prevents aortic calcification
calcification in vivo (atherogenic Apoe−/− mice; Apoe−/− mice, FIG. 9B, 30 mg/kg): mitigates calcification; also recorded: reduces calcification in vivo
OsteoSense fluorescence (mineral) vs vehicle treated controls (atherogenic Apoe−/− mice; treated after 15 weeks of atherogenic diet): Lower OsteoSense fluorescence
OsteoSense fluorescence (mineral) vs vehicle treated controls (atherogenic Apoe−/− mice; treated at the beginning of the atherogenic diet): Lower OsteoSense fluorescence
activation of rodent receptor (rodent receptor): does not activate rodent receptor
agonism of human RXFP1 (RXFP1 [10]): potent and efficacious non-peptide agonist; also recorded: specific agonist for human RXFP1
